According to patent US20080032324A1, “Apparatus and method for cell migration assays” (The Trustees Of Tufts College, priority 2004, published 2008):
“Also recorded” adds a separate entry of the source.

Key:
Type in all cases: cell-based, mouse
[1] = test system: NIH/3T3 fibroblasts; assay: Fiber bundle whole-cell migration assay (residence time, 25 μm fibers); conditions: ten minutes per frame, average of 30 fibers, ten hours, control 4.3±2.9 frames
Procedure: (§1) After labeling, the cells were allowed to settle and adhere to a fibronectin-coated fiber bundle that had been secured to a delta T4 dish (FIG. 1A). Fibers were placed into the delta T4 dish to maintain the temperature at 37° C. during experiments. […] After cells were allowed to adhere to the bundle's distal end, it was mounted on an inverted microscope stage, and excitation light was introduced through the proximal end of the fiber bundle. The fiber bundle is not connected directly to any part of the microscope, but remains within a centimeter of the objective. The excitation light was transferred through the fiber bundle to the distal end, where it excited the Vibrant DiO dye in the cell membrane (FIG. 1B). The resulting fluorescence emission light was then carried back through the fiber bundle to a CCD camera. […]
(§2) Cell migration was detected using two types of fiber bundles differing in the sizes of the individual fibers. […]
Migration is quantified as an increase in intensity at a particular fiber, as a fluorescently dyed cell moves across that fiber. […]
In this example, a threshold was assigned for each selected fiber at 75% of the maximum peak intensity for that particular fiber. […] The number of frames that the intensity stays above this threshold is counted for each fiber, and then averaged for all 30 fibers, giving an average residence time for the experiment (FIG. 2D). […]

[2] = test system: NIH/3T3 fibroblasts; assay: Fiber bundle subcellular imaging assay (residence time, 4.5 μm fibers); conditions: 10 seconds per frame, top 30 fibers, 5-minute experiment, control 7.5±7.4 frames
Procedure: as §1, with “The excitation light was transferred through the fiber bundle to the distal end, where it excited the Vibrant DiO dye in the cell membrane (FIG. 1B).” left out
as §2
The data shown in FIG. 3C originate from an experiment in which three separate fibers were exposed to successively higher concentrations of nocodazole. […] Regions of the cell periphery can be difficult to distinguish from the background, because the fluorescence intensity gradually diminishes at the cell perimeter. […]
Timelapse recording was performed to determine the extent of cell migration or membrane motion across the fiber surface. […] Cell movement was recorded on delta T4 dishes (data not shown), as well as on Schott and Illumina fiber bundles. […] All movement was recorded using a fluorescein filter set. […]

[3] = test system: NIH/3T3 fibroblasts; assay: Cell viability, ethidium homodimer-1 dead assay after the experiment; conditions: ethidium homodimer dead assay after each experiment
Description: The dead assay was taken from a Live/Dead Viability/Cytotoxicity kit from Molecular Probes. DiO and EthD show virtually no overlap in excitation/emission wavelengths, being 484/501 nm and 528/617 nm, respectively.

## COC(=O)Nc1nc2ccc(C(=O)c3cccs3)cc2[nH]1 [nocodazole, Nocodazole]
[1]; 200 nM nocodazole
  average residence time: 18.8±10.3 frames
[1]; 300 nM nocodazole
  average residence time: 24.6±18.6 frames
[2]; 200 nM nocodazole
  average residence time: 13.2±8.0 frames
[2]; 300 nM nocodazole
  average residence time: 19.0±9.4 frames
[3]
  cell viability after nocodazole treatment: all cells were alive; also recorded: Cells were determined to be alive
